Values joined by “and” are separate entries in the source; they are usually repeats but may differ in a detail not shown here. Equal entries are not always repeated.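 Cells were grown in 96-well plates and exposed to each compound for 48 hours at five concentrations; endpoints were interpolated linearly between bracketing concentrations, or set to the highest concentration if not reached. GI50 marks 50% less growth. The concentration for full growth arrest is given as TGI.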

Among the test systems are BT-549 breast; DLD-1 colon; HOP-18 NSCLC; MDA-MB-231 breast; MDA-MB-435; SK-MEL-2 melanoma; SNB-75 CNS; SNB-78 CNS; SR leukemia; T-47D breast.
Assay in all cases: NCI anticancer screen, dose series, 48 h

`Cc1c(N)nc(C2CC(=O)N2CC(N)C(N)=O)nc1C(=O)NC(C(=O)NC(C)C(O)C(C)C(=O)NC(C(=O)NCCc1nc(-c2nc(C(=O)NCCNCC(C)O)cs2)cs1)C(C)O)C(OC1OC(CO)C(O)C(O)C1OC1OC(CO)C(O)C(OC(N)=O)C1O)c1cnc[nH]1` (stereo not drawn): the TGI in the test with BT-549 breast was > 50 µM; with DLD-1 colon, > 100 µM; in the test on HOP-18 NSCLC, > 100 µM; in the test on MDA-MB-231 breast it was > 50 µM; with MDA-MB-435 it was 36.4 µM; in the test on SK-MEL-2 melanoma, 50 µM and > 79.2 µM. Also, the TGI was 23.9 µM and 6.66 µM in the test on SNB-75 CNS; > 100 µM in the test on SNB-78 CNS; 50 µM in the test with SR leukemia; > 5 µM in the test on T-47D breast. The GI50 with SK-MEL-2 melanoma was 31.7 µM; with SNB-75 CNS, 3.06 µM; in the test on SR leukemia, 0.005 µM.

For the compound `Cn1ncc2c(c1=O)Nc1ccccc1S2(=O)=O`, the TGI with DLD-1 colon, in the test with HOP-18 NSCLC, in the test on SK-MEL-2 melanoma, with SNB-75 CNS, with SNB-78 CNS and with SR leukemia was > 100 µM throughout.

Take `COC(=O)c1ccccc1NCc1cc(O)ccc1O`: the TGI with BT-549 breast is 15 µM; with DLD-1 colon, 43 µM; with HOP-18 NSCLC it was 27.6 µM; with MDA-MB-435, 34.2 µM; in the test on SK-MEL-2 melanoma it was 58.3 µM; in the test with SNB-75 CNS it was > 75.9 µM. Further, the TGI was 66.6 µM in the test on SNB-78 CNS and 31.8 µM in the test with T-47D breast.

On to `COC(=O)/C(=C/c1ccc(OC)cc1)c1cc(OC)c(OC)c(OC)c1`, for which the TGI with BT-549 breast is > 100 µM; with DLD-1 colon, > 100 µM; in the test on HOP-18 NSCLC, > 100 µM; with MDA-MB-231 breast, > 100 µM; with MDA-MB-435, 0.477 µM; with SK-MEL-2 melanoma, > 100 µM. Moreover, the TGI is 5.77 µM in the test on SNB-75 CNS, > 100 µM with SNB-78 CNS, > 19.6 µM with SR leukemia and > 100 µM with T-47D breast.

As for `O=C1COc2cc3c(cc2N1)SCC(=O)N3`, the TGI in the test with DLD-1 colon, with HOP-18 NSCLC, in the test with SK-MEL-2 melanoma, with SNB-75 CNS, in the test with SNB-78 CNS and in the test with SR leukemia was > 100 µM throughout.

As to `COC(=O)C1=C(C)C(=O)C2(CCCCCC2C(=O)OC)C1` (stereo not drawn), the TGI with DLD-1 colon, with HOP-18 NSCLC, in the test with SK-MEL-2 melanoma, in the test on SNB-75 CNS, in the test with SNB-78 CNS and in the test with SR leukemia was > 100 µM in each case.

In the case of `CCOC(=O)NC/C=C/CO`, the TGI in the test with DLD-1 colon, with HOP-18 NSCLC, in the test on SK-MEL-2 melanoma, in the test on SNB-75 CNS, in the test on SNB-78 CNS and with SR leukemia was > 100 µM throughout.

As to `CCOC(=O)/C(=C/c1ccc[nH]1)P(=O)(OCC)OCC`, the TGI with DLD-1 colon, with HOP-18 NSCLC, with SK-MEL-2 melanoma, in the test on SNB-75 CNS, in the test with SNB-78 CNS and in the test on SR leukemia was > 100 µM in each case.

As to `Cc1c(C(=O)C/C(=N/NC(=O)CC#N)C(N)=O)[n+](=O)c2ccccc2n1[O-]`, the TGI with DLD-1 colon, in the test with HOP-18 NSCLC, with SK-MEL-2 melanoma, in the test on SNB-75 CNS, in the test with SNB-78 CNS and in the test with SR leukemia was > 100 µM throughout.

As for `O=C(/C=C/c1ccc(OCC(=O)N2CCN(c3ccccc3)CC2)cc1)c1ccccc1`, the TGI in the test on DLD-1 colon is > 100 µM; in the test with HOP-18 NSCLC, > 82.7 µM; in the test on SK-MEL-2 melanoma, > 60.4 µM; in the test on SNB-75 CNS, > 78.9 µM; in the test with SNB-78 CNS it was > 100 µM; in the test on SR leukemia, 7.45 µM.

Values taken from PubChem BioAssay (NCI).
